# Earlier results, collected in publication PMC5413030, “Radiochemistry on electrodes: Synthesis of an ^18F-labelled and in vivo stable COX-2 inhibitor” (PLoS ONE, 2017).
# Assays:
# [1] = oxidation of the methyl group
smiles,measurement,setting,value
"Cc1ccc(-c2cc(C(F)(F)F)nn2-c2ccc(S(N)(=O)=O)cc2)cc1 [Celecoxib, 4-[5-(4-Methylphenyl)-3-(trifluoromethyl)-1H-pyrazol-1-yl]benzenesulfonamide]",protein binding in plasma,,> 95%
same,metabolic behavior of celecoxib,[1],almost completely metabolized
